Patent US10301624B2, “Targeting human satellite II (HSATII)” (The General Hospital Corporation, priority 2014, dated 2019)
One block for each compound: values may come before it.

How the values were obtained:
Type in all cases: cell-based, human
[1] = system: DLD1; experiment: Cell viability in 3D non-adherent and 2D adherent culture, DLD1
Protocol: (§1) FIGS. 14A-D. Effect of Locked Nucleic Acids targeting HSATII on TP53 mutant Colorectal Cancer cell lines. […] Error bars represent standard deviation. P-value was calculated using student's two tailed t-test. *represents P<0.05.
(§2) Cells were transfected with LNAs either targeting HSATII or with non-specific control Locked Nucleic Acids at 500 nM concentrations using Lipofectamine 2000 according to manufacturer recommended conditions. Cells were trypsinized 24 hours after transfection and seeded at concentration of 1000 cells per well in 96 well plates either in 2 dimensional or 3 dimensional culture conditions. For 2D conditions, the cells were transferred to cell culture treated 96 well plates and grown in RPMI+10% FBS. For 3D conditions, cells were grown in (RPMI+10% FBS+) in ultra-low attachment 96 well plates.

[2] = system: SW620; experiment: Cell viability in 3D non-adherent and 2D adherent culture, SW620; conditions: SW620, non-adherent conditions, Nec-1 10 μM
Protocol: as §1, §2

[3] = system: HSATII-chr10 locus; experiment: qPCR analysis on HSATII-chr10 locus after DNase I or RNase A treatment of COLO205 extracts; conditions: COLO205 cells, ddC 100 μM for two weeks vs DMSO
From the text: FIGS. 3A-C. HSATII RNA-to-DNA conversion occurs through a reverse transcription mechanism. (A) qPCR analysis on HSATII-chr10 locus following DNAse I or RNase A treatment and reverse transcription of extracts obtained from COLO205 cells treated with DMSO or 2′, 3′-dideoxycytidine (ddC). (B) RIP lysates prepared from SW620 2D cultures or xenografts were immunoprecipitated with hTERT or IgG antibody, reverse transcribed and validated by qPCR for HSATII and TERC RNA enrichment. (C) qPCR analysis on HSATII-chr10 locus in COLO205 extracts 72 h after non-targeting (siNT) or TERT-targeting (siTERT) siRNA transfection. For all charts, values represent average of at least three independent experiments ±SEM. *P<0.05 (Student's t test).
All colon cancer cell lines were cultured in RPMI-1640+10% FBS+1% Pen/Strep (Gibco/Life Technologies). DMEM with the same supplements was used for 293T cells. For drug treatment, cells were cultured in presence of either DMSO or 100 μM 2′, 3′-dideoxycytidine (ddC, Sigma) for two weeks. […]
RNA was reverse transcribed using a SuperScript III First-Strand Synthesis kit (Invitrogen/Life Technologies) and cDNA was analyzed by qPCR using either Power SYBR-Green PCR Maser Mix or TaqMan Universal Master Mix on an ABI/PRISM 7500 platform (all reagents were from Applied Biosystems/Life Technologies). […]

[4] = system: COLO205 cells; experiment: Proliferation assay (CellTiter-Glo), COLO205
Protocol: FIG. 8. Proliferation assay of DMSO- or ddC-treated COLO205 (top) and HCT116 (bottom) cells. Cells were seeded at a density of 5×10^2 cells/well in a 96-well plate and quantified daily using CellTiter-Glo luminescent cell viability assay.
(§3) For proliferation assays, cells were seeded at a density of 5×10^2 cells/well in a 96-well plate (Corning) in presence of DMSO/ddC (100 μM) or one day after transfection with control/HSATII antisense oligonucleotides. Daily quantification was performed using CellTiter-Glo luminescent cell viability assay (Promega) with a SpectraMax M5 microplate reader (Molecular Devices).
50 nM ON-TARGETplus Non-targeting pool siRNA (Thermo Scientific) and Mission Pre-designed TERT siRNAs (Sigma Aldrich) or 500 nM Negative Control and HSATII LNA antisense oligonucleotides (Exiqon) were electroporated into COLO205 cells according to the Neon Transfection System (Invitrogen/Life Technology) instructions using the following conditions: 1600V; pulse width 10; 3 pulses. 500 nM Negative Control/HSATII LNA antisense oligonucleotides were transfected in HCT116 and SW620 cells using Lipofectamine 2000 (Invitrogen/Life Technologies) according to the manufacturer's instructions.

[5] = system: HCT116 cells; experiment: Proliferation assay (CellTiter-Glo), HCT116; conditions: cells without endogenous HSATII expression, adherent growth, ddC 100 μM vs DMSO
Protocol: as §3, with “FIG. 8. Proliferation assay of DMSO- or ddC-treated COLO205 (top) and HCT116 (bottom) cells. Cells were seeded at a density of 5×10^2 cells/well in a 96-well plate and quantified daily using CellTiter-Glo luminescent cell viability assay. For” for “For”, “control/[…]” for “control/HSATII”

[6] = system: HCT116; experiment: Cell growth in 3D and 2D culture, HCT116 (with or without shRNA TP53 knockdown); conditions: for susceptibility to ddC: HCT116 with shRNA TP53 knockdown
Protocol: (§4) FIGS. 15A-D. Effect of Locked Nucleic Acids targeting HSATII on TP53 wild type Colorectal Cancer cell lines. […] Error bars represent standard deviation. P-value was calculated using student's two tailed t-test.
FIGS. 19A-F. HCT116 cells are resistant to HSATII targeting and Reverse Transcriptase inhibition. […] Error bars represent standard deviation. P-value was calculated using student's two tailed t-test.
as §2
(§5) Stable cell lines carrying either one of two shRNAs targeting TP53, or a non-target shRNA using lentiviral infection, were generated.

[7] = system: HCT8; experiment: Cell growth in 3D and 2D culture, HCT8 (with or without shRNA TP53 knockdown)
Protocol: as §4
FIGS. 18A-F. TP53 knockdown sensitizes HCT8 cells to HSATII targeted Locked Nucleic Acids and Reverse Transcriptase inhibition. HCT8 colorectal cancer cells are resistant to the reverse transcriptase inhibitor ddC under 3D (A) and 2D (D) growth conditions. shRNA mediated knockdown of TP53 sensitizes the cells to reverse transcriptase inhibition under 3D (B-C), but not 2D (E-F) growth conditions. TP53 knockdown sensitizes HCT8 cells to HSATII targeted Locked Nucleic Acids under 3D (B-C), but not 2D (E-F) growth conditions. Error bars represent standard deviation. P-value was calculated using student's two tailed t-test. *represents P<0.05, **represents P<0.01.
as §2, §5

Compound: CN1C(=O)C(Cc2c[nH]c3ccccc23)NC1=S (stereo not drawn) [Nec-1, Necrostatin-1]
rescue of HSATII LNA-induced growth inhibition ([1]; DLD1, non-adherent conditions, Nec-1 10 μM): rescued
rescue of HSATII LNA-induced growth inhibition [2]: rescued

HSATII RNA species [3]: increasing
levels of endogenous HSATII rdDNA [3]: reduced
Compound: Nc1ccn([C@H]2CC[C@@H](CO)O2)c(=O)n1 [ddC, 2′, 3′-dideoxycytidine]
cell proliferation ([4]; COLO205, ddC 100 μM vs DMSO): suppressed
cell proliferation [5]: no effect
growth inhibition ([1]; DLD1, 3 dimensional culture, ddC 5 μM): significant growth inhibition
sensitivity to ddC ([6]; HCT116, 2D growth conditions): resistant
sensitivity to ddC ([6]; HCT116, 3D growth conditions): resistant
susceptibility to ddC ([6]; 2D culture): resistance
susceptibility to ddC ([6]; 3D culture): resistance
sensitivity to ddC ([7]; HCT8, 2D growth conditions): resistant
sensitivity to ddC ([7]; HCT8, 3D growth conditions): resistant
growth inhibition ([7]; HCT8 with shRNA TP53 knockdown, 3D culture, ddC): significant growth inhibition

Compound: SEQ ID NO:24: Locked nucleic acids (LNA) probes commercially purchased from Exiqon (GATTCCATTCGATGAT) specifically targeting HSATII (LNA-modified, pattern not given here)
cell proliferation ([4]; COLO205, 500 nM LNA antisense oligonucleotide vs negative control, five days): affected
